Assay [1] addresses HCV NS3/4A protease genotype 1b (Hepatitis C virus genotype 1b, UniProt P26663). Briefly: HCV NS3/4A protease time-resolved fluorescence (TRF) assay, Ki against genotype 1b. The assay is classed as biochemical. Particulars: IC50 [gt-1b] (nM), NS3/4A genotype 1b, enzyme 0.2 nM. The method in brief:
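Time-resolved fluorescence readout of NS3/4A cleavage of 25 nM europium-labelled peptide over 2.5 h at room temperature, enzyme levels set for signal/background 10–30 (0.2, 0.4, 0.025 nM for 1b, A156T, 3a). Ki by IC50=Ki(1+[S]/KM).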

The test system of another assay is HCV genotype 1b replicon. Briefly: HCV replicon assay, genotype 1b replicon EC50. The settings on record: Hepatitis C virus, genotype 1b replicon, read-out: EC50 [gt-1b]. Format: cell-based, Hepatitis C virus. The method in brief:
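Replicon cells (Neo^r, some luciferase:Neo^r fusion); G418 removed at plating; compound dilution series, 24-48 h. Readout: RNA by 32P-probe hybridization/protection or TaqMan, normalized to cyclophilin A RNA, or luciferase. EC50 vs DMSO control, 4-parameter fit.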

pEC50: −log10 of the molar value. Like-named read-outs stand apart in the source and are kept apart here.

One may read the IC50 as the midpoint of a concentration-inhibition curve. By pEC50 is commonly meant the EC50 on a negative log10 scale, so that one unit is a factor of ten. Regarding `COc1ccc2nc(C)c3c(c2c1)CC[C@]1(C[C@H]2C(=O)N[C@]4(C(=O)NS(=O)(=O)C5(C)CC5)C[C@H]4/C=C\CCCCC[C@H](NC(=O)OC(C)(C)C(F)(F)F)C(=O)N2C1)O3` [Example 254, 1,1,1-trifluoro-2-methylpropan-2-yl [(2R,6S,12Z,13aS,14aR,16aS)-9′-methoxy-5′-methyl-14a-{[(1-methylcyclopropyl)sulfonyl]carbamoyl}-5,16-dioxo-1,1′,2′,5,6,7,8,9,10,11,13a,14,14a,15,16,16a-hexadecahydrospiro[cyclopropa[e]pyrrolo[1,2-a][1,4]diazacyclopentadecine-2,3′-pyrano[2,3-c]quinolin]-6-yl]carbamate], the IC50 in assay [1] (K+ salt) was determined as 0.01 nM. For the same molecule, the pEC50 with HCV genotype 1b replicon (K+ salt) was 8.80.

Turning to `Cc1nc2ccc(OC(F)F)cc2c2c1O[C@]1(CC2)C[C@H]2C(=O)N[C@]3(C(=O)NS(=O)(=O)C4(C)CC4)C[C@H]3/C=C\CCCCC[C@H](NC(=O)OC(C)(C)C)C(=O)N2C1` [Example 256, tert-butyl [(2R,6S,12Z,13aS,14aR,16aS)-9′-(difluoromethoxy)-5′-methyl-14a-{[(1-methylcyclopropyl)sulfonyl]carbamoyl}-5,16-dioxo-1,1′,2′,5,6,7,8,9,10,11,13a,14,14a,15,16,16a-hexadecahydrospiro[cyclopropa[e]pyrrolo[1,2-a][1,4]diazacyclopentadecine-2,3′-pyrano[2,3-c]quinolin]-6-yl]carbamate], 0.005 nM corresponded to half-maximal inhibition in assay [1] (IC50). Besides, in the assay with HCV genotype 1b replicon, the pEC50 is 8.51.

In the case of `Cc1nc2ccccc2c2c1O[C@]1(CC2)C[C@H]2C(=O)N[C@]3(C(=O)NS(=O)(=O)C4(C)CC4)C[C@H]3/C=C\CCCCC[C@H](NC(=O)OC3C[C@H]4C=C[C@@H]3C4)C(=O)N2C1` (stereo partly drawn) [Example 257, (1S,4S)-bicyclo[2.2.1]hept-5-en-2-yl [(2R,6S,12Z,13aS,14aR,16aS)-5′-methyl-14a-{[(1-methylcyclopropyl)sulfonyl]carbamoyl}-5,16-dioxo-1,1′,2′,5,6,7,8,9,10,11,13a,14,14a,15,16,16a-hexadecahydrospiro[cyclopropa[e]pyrrolo[1,2-a][1,4]diazacyclopentadecine-2,3′-pyrano[2,3-c]quinolin]-6-yl]carbamate], the midpoint of inhibition in assay [1], the IC50, lay at 0.018 nM. In addition, the pEC50 with HCV genotype 1b replicon is 8.49.

Take `Cc1nc2ccccc2c2c1O[C@]1(CC2)C[C@H]2C(=O)N[C@]3(C(=O)NS(=O)(=O)C4(C)CC4)C[C@H]3/C=C\CCCCC[C@H](NC(=O)OC(C(F)(F)F)C(F)(F)F)C(=O)N2C1` [Example 258, 1,1,1,3,3,3-hexafluoropropan-2-yl [(2R,6S,12Z,13aS,14aR,16aS)-5′-methyl-14a-{[(1-methylcyclopropyl)sulfonyl]carbamoyl}-5,16-dioxo-1,1′,2′,5,6,7,8,9,10,11,13a,14,14a,15,16,16a-hexadecahydrospiro[cyclopropa[e]pyrrolo[1,2-a][1,4]diazacyclopentadecine-2,3′-pyrano[2,3-c]quinolin]-6-yl]carbamate]: half-maximal inhibition in assay [1] (IC50) was put at 0.022 nM. For the same molecule, the pEC50 in the assay on HCV genotype 1b replicon was 6.14.

Turning to `COc1ccc2nc(C)c3c(c2c1)C(F)(F)C[C@]1(C[C@H]2C(=O)N[C@]4(C(=O)NS(=O)(=O)C5(C)CC5)C[C@H]4/C=C\CCCCC[C@H](NC(=O)OC4CCCC4)C(=O)N2C1)O3` [Example 260, cyclopentyl [(2S,6S,12Z,13aS,14aR,16aS)-1′,1′-difluoro-9′-methoxy-5′-methyl-14a-{[(1-methylcyclopropyl)sulfonyl]carbamoyl}-5,16-dioxo-1,1′,2′,5,6,7,8,9,10,11,13a,14,14a,15,16,16a-hexadecahydrospiro[cyclopropa[e]pyrrolo[1,2-a][1,4]diazacyclopentadecine-2,3′-pyrano[2,3-c]quinolin]-6-yl]carbamate], in assay [1], half-maximal inhibition (IC50) required 0.006 nM. In the assay on HCV genotype 1b replicon, the pEC50 was 8.28.
